One may read the IC50 as the concentration needed to halve the response being measured. As a reminder, the melting point is the temperature of the solid-liquid transition.

The structures appear in SMILES notation. Where two headings read alike, the source gives them in different places.

Data on 18 compounds can be found in patent US7514432B2, “Compounds and methods of treating cell proliferative diseases, retinopathies and arthritis” (Exonhit Therapeutics SA, priority 2003, dated 2009).

One data set deals with HMEC1. Briefly: Cell viability assay (MTT), HMEC1. The class given is cell-based, Human. As to conditions: MTT, 10% FBS, 6-day treatment, 1% DMSO. The protocol:
(§1) Table 12: 6-day cell viability assay (MTT) in the presence of 10% Fetal Bovine Serum and 1% DMSO, in HMEC1, HCT116, MDA-MB-231, MCF7 and NIH3T3 cell lines. 3 10^3 to 15 10^3 cells were seeded in 48-well plates in growth medium containing 10% FBS, with or without various concentrations of test compounds. Cell cultures were fed every 3 days with the appropriate media. Cell viability was determined on day 6. Data were analyzed and IC50s were calculated from dose-response curves using GraphPad Prism. Results summarized in the tables are mean±SEM of 1 to 8 independent experiments.
(§2) In order to determine a compound's effect on cell viability, microculture tetrazolium assays (MTT) were performed as described by Carmichael et al. (1996) with modifications. Four human tumoral cell lines, namely HCT116 colon adenocarcinoma, H460 lung carcinoma, MCF-7 and MDA-MB-231 breast carcinoma cell lines, DLD1 colorectal adenocarcinoma, HeLa adenocarcinoma, HepG2 hepatocellular carcinoma. 3 immortalized but non tumorigenic cell lines, namely NIH3T3 mouse fibroblasts (American Type Culture Collection) and primary hepatocytes (Biopredic international), cultured according to their recommendations together with Human Microvasculature Endothelial Cell line HMEC1 (National Center for Infectious Diseases). Briefly, cells were seeded in 48-well plates 24 hours before drug addition. Cells were treated with 0 to 200 μM (11 concentrations) of compound solubilized in DMSO, adjusting the final concentration of DMSO to 1% in the well. 16 hours, and three or six days after treatment, 0.5 mg/ml MTT (Sigma) was added to the medium and cells were incubated for 1-5 hours at 37° C. before solubilization of formazan crystals in 100% DMSO. Absorbance was measured using a spectrophotometer at a wavelength of 550 nm. Data was analyzed using the GraphPad Prism software (GraphPad Software, Inc.), and IC50 (dose leading to 50% cell death) was calculated from the dose-response curves.

For a further data set, the system named is HCT116. Briefly: Cell viability assay (MTT), HCT116. The format is cell-based, human. To be noted: 1% DMSO. The protocol:
as §1
(§3) Table 13: 6-day cell viability assay (MTT) in the presence of 0.5% Fetal Bovine Serum and 1% DMSO, in HCT116 and MDA-MB-231 cell lines. 7.5 10^4 to 15 10^4 cells were seeded in 48-well plates in growth medium containing 10% FBS, with or without various concentrations of test compounds. Cell cultures were fed every 3 days with the appropriate media. Cell viability was determined on day 6. Data were analyzed and IC50s were calculated from dose-response curves using GraphPad Prism. Results summarized in the tables are mean±SEM of 1 to 2 independent experiments.
(§4) Table 14: 3-day cell viability assay (MTT) in the presence of 10% Fetal Bovine Serum and 1% DMSO, in DLD1, HCT116, MDA-MB-231, MCF7 and HeLa cells. 7.5 10^3 to 1.5 10^4 cells were seeded in 48-well plates in growth medium containing 10% FBS, with or without various concentrations of test compounds. Data were analyzed and IC50s were calculated from dose-response curves using GraphPad Prism. Results summarized in the tables are mean±SEM of 1 to 7 independent experiments.
(§5) Table 15: 16-hour cell viability assay (MTT) in the presence of 10% Fetal Bovine Serum and 1% DMSO, in HCT116, MDA-MB-231, NIH3T3, HepG2 and primary hepatocytes. 5 10^4 to 10 10^4 cells were seeded in 48-well plates in growth medium containing 10% FBS, with or without various concentrations of test compounds. Data were analyzed and IC50s were calculated from dose-reponse curves using GraphPad Prism. Results summarized in the tables are mean±SEM of 1 to 2 independent experiments.
as §2

The next data set relates to MDA-MB-231. Briefly: Cell viability assay (MTT), MDA-MB-231. The class given is cell-based, human. As to conditions: 1% DMSO. On the procedure: as §1, §3, §4, §5, §2
In another data set the test system is NIH 3T3. Description: Cell viability assay (MTT), NIH 3T3. As to conditions: 10% FBS, 1% DMSO. The class given is cell-based, mouse. The protocol:
as §1, §5, §2

Where [1] appears, read: Homo sapiens, HCT-116, 144 h, 10% FBS, 6-day treatment.

For the compound `O=c1cc(COC2CCCCO2)occ1OCCCCCCCCSc1ccnc2cc(C(F)(F)F)ccc12` (stereo not drawn) [EHT 1006, 5-(8-(7-(Trifluoromethyl)quinolin-4-ylthio)octyloxy)-2-((tetrahydro-2H-pyran-2-yloxy)methyl)-4H-pyran-4-one], the melting point stood at 66.1 °C. In the data set with HMEC1 (Homo sapiens, HMEC-1, 144 h), this compound returned an IC50 of less than 10 µM. Further, the IC50 in the data set on HMEC1 was 9.5 µM.

For `O=c1cc(CO)occ1OCCCCCSc1ccnc2cc(C(F)(F)F)ccc12` [EHT 5909, 2-Hydroxymethyl-5-[5-(7-trifluoromethyl-quinolin-4-ylsulfanyl)-pentyloxy]-4H-pyran-4-one], the melting point is 133.2 °C (dec.).

On to `CS(=O)(=O)N1CCN(Cc2cc(=O)c(OCCCCCSc3ccnc4cc(C(F)(F)F)ccc34)co2)CC1` [EHT 8366, 5-(5-(7-(Trifluoromethyl)quinolin-4-ylthio)pentyloxy)-2-((4-Methylsulfonylpiperazin-1-yl)methyl)-4H-pyran-4-one], for which the melting point was determined as 66.3 °C.

Regarding `Cl.Cl.Cl.O=c1cc(CN2CCNCC2)occ1OCCCCCOc1ccnc2cc(Cl)ccc12` [EHT 0872, 5-(5-(7-Chloroquinolin-4-yloxy)pentyloxy)-2-((piperazin-1-yl)methyl)-4H-pyran-4-one trihydrochloride], the melting point stood at 164.7 °C. In addition, the IC50 with HMEC1 (Homo sapiens, HMEC-1, 144 h) came out at 28.4 µM. This compound also came in with an IC50 in the data set with HCT116 (setting [1]) of 9.3 µM.

The compound `CC(=O)N1CCN(Cc2cc(=O)c(OCCCCCSc3ccnc4cc(C(F)(F)F)ccc34)co2)CC1` [EHT 3980, 5-(5-(7-(Trifluoromethyl)quinolin-4-ylthio)pentyloxy)-2-((4-acetylpiperazin-1-yl)methyl)-4H-pyran-4-one] showed a melting point of 99.5 °C. In addition, half-maximal inhibition in the data set on HMEC1 (Homo sapiens, HMEC-1, 144 h) (IC50) required 38.5 µM. The compound further gave a concentration for half-maximal inhibition (IC50) in the data set with HCT116 (10% FBS, 6-day treatment) of 2.3 µM. Also, in the data set on HCT116 (setting [1]), the IC50 is less than 4 µM.

With `O=c1cc(CCl)occ1OCCCCCSc1ccnc2cc(C(F)(F)F)ccc12` [EHT 1494, 2-Chloromethyl-5-[5-(7-trifluoromethyl-quinolin-4-ylsulfanyl)-pentyloxy]-4H-pyran-4-one], the melting point came out at 38.2 °C.

`O=c1cc(CN2CCOCC2)occ1OCCOc1ccnc2cc(C(F)(F)F)ccc12` [EHT 6892, 5-(2-(7-(trifluoromethyl)quinolin-4-yloxy)ethoxy)-2-(morpholinomethyl)-4H-pyran-4-one] returned a melting point of 125.6 °C. The compound also gave an IC50 with HCT116 (setting [1]) of 101 µM.

In turn, `O=c1cc(COC2CCCCO2)occ1OCCCCCCSc1ccnc2cc(C(F)(F)F)ccc12` (stereo not drawn) [EHT 6271, 2-(Tetrahydro-pyran-2-yloxymethyl)-5-[6-(7-trifluoromethyl-quinolin-4-ylsulfanyl)-hexyloxy]-4H-pyran-4-one] registered a melting point of 67.8 °C. The compound further came in with an IC50 in the data set with HMEC1 (Homo sapiens, HMEC-1, 144 h) of less than 10 µM. For the same compound, in the data set with HMEC1, the IC50 turned out to be 9 µM.

`O=c1cc(CF)occ1OCCCCCSc1ccnc2cc(C(F)(F)F)ccc12` [EHT 8817, 5-(5-(7-(Trifluoromethyl)quinolin-4-ylthio)pentyloxy)-2-(fluoromethyl)-4H-pyran-4-one] had a melting point of 107 °C. Moreover, in the data set on HMEC1 (Homo sapiens, HMEC-1, 144 h), it took 41 µM to reach half-maximal inhibition (IC50). In addition, in the data set with HCT116 (setting [1]), it took 12.1 µM to reach half-maximal inhibition (IC50).

For `O=C(CCCCOc1coc(CN2CCOCC2)cc1=O)Nc1ccnc2cc(C(F)(F)F)ccc12` [EHT 6037, 5-(6-(Morpholinomethyl)-4-oxo-4H-pyran-3-yloxy)-N-(7-(trifluoromethyl)quinolin-4-yl)pentanamide], the melting point came to 126.8 °C.

For the compound `O=c1cc(CN2CCCCC2)occ1OCCCCCSc1ccnc2cc(C(F)(F)F)ccc12` [EHT 9317, 5-(5-(7-(Trifluoromethyl)quinolin-4-ylthio)pentyloxy)-2-((piperidin-1-yl)methyl)-4H-pyran-4-one], the melting point came to 108.9 °C. Besides, it took 11.7 µM to reach half-maximal inhibition in the data set with HMEC1 (Homo sapiens, HMEC-1, 144 h) (IC50). Also, half-maximal inhibition with HCT116 (10% FBS, 6-day treatment) (IC50) was put at 2.3 µM. The compound also registered an IC50 in the data set with HCT116 (setting [1]) of less than 4 µM.

In turn, `CC(C)(C)OC(=O)N1CCN(Cc2cc(=O)c(OCCCCCOc3ccnc4cc(Cl)ccc34)co2)CC1` [EHT 2580, tert-Butyl 4-((5-(5-(7-chloroquinolin-4-yloxy)pentyloxy)-4-oxo-4H-pyran-2-yl)methyl)piperazine-1-carboxylate] displayed a melting point of 130.2 °C.

Regarding `COCOCc1cc(=O)c(OCCCCCSc2ccnc3cc(C(F)(F)F)ccc23)co1` [EHT 2168, 2-Methoxymethoxymethyl-5-[5-(7-trifluoromethyl-quinolin-4-ylsulfanyl)-pentyloxy]-4H-pyran-4-one], the melting point is 122.1 °C (dec.). The compound also returned an IC50 with HMEC1 (Homo sapiens, HMEC-1, 144 h) of 19.3 µM. In the data set on HCT116 (setting [1]), this compound had an IC50 of 6 µM.

`CN1CCN(Cc2cc(=O)c(OCCCCCOc3ncnc4ccccc34)co2)CC1` [EHT 4063, 5-(5-(Quinazolin-4-yloxy)pentyloxy)-2-((4-methylpiperazin-1-yl)methyl)-4H-pyran-4-one] yielded a melting point of 78.2 °C. Also, the IC50 with HMEC1 (Homo sapiens, HMEC-1, 144 h) is roughly 200 µM. For the same compound, the IC50 in the data set on HCT116 (setting [1]) was roughly 200 µM.

As to `O=c1cc(COC2CCCCO2)occ1OCCCCSc1ccnc2cc(C(F)(F)F)ccc12` (stereo not drawn) [EHT 4745, 2-(Tetrahydro-pyran-2-yloxymethyl)-5-[4-(7-trifluoromethyl-quinolin-4-ylsulfanyl)-butoxy]-4H-pyran-4-one], the melting point was 97.3 °C (dec.). In the data set on HMEC1 (Homo sapiens, HMEC-1, 144 h), the IC50 is less than 10 µM. This compound gave an IC50 in the data set on HMEC1 of 9.8 µM. This compound also returned an IC50 in the data set with HCT116 (setting [1]) of 4.1 µM.

On to `O=c1cc(CN2CCOCC2)occ1OCc1ccccc1CSc1ccnc2cc(C(F)(F)F)ccc12` [EHT 9069, 5-((2-((7-(Trifluoromethyl)quinolin-4-ylthio)methyl)phenyl)methoxy)-2-(morpholinomethyl)-4H-pyran-4-one], for which the melting point was determined as 71.6 °C. Besides, in the data set with HMEC1 (Homo sapiens, HMEC-1, 144 h), it took 34.8 µM to reach half-maximal inhibition (IC50). Moreover, the IC50 in the data set with HCT116 (setting [1]) worked out at 15.5 µM. The IC50 with MDA-MB-231 (Homo sapiens, MDA-MB-231, 144 h, 10% FBS, 6-day treatment, read-out: IC50 μM, MDA-MB-231) is 13.5 µM. This compound showed an IC50 in the data set with NIH 3T3 (Mus musculus, NIH3T3, 144 h, 6-day treatment) of 41.3 µM.

Take `COc1cc2c(cc1O)CC[C@@H]1[C@@H]2CC[C@]2(C)[C@@H](O)CC[C@@H]12` [2ME, 2-Methoxyestradiol, reference compound]: the IC50 was 2.1 µM in the data set with HMEC1; 3.1 µM in the data set on HCT116 (0.5% FBS, 6-day treatment); 0.8 µM in the data set on HCT116 (10% FBS, 6-day treatment); 128 µM in the data set on HCT116 (10% FBS, 16-hours treatment); 15.4 µM with MDA-MB-231 (0.5% FBS, 6-day treatment, read-out: IC50 (μM), MDA-MB-231); 0.3 µM in the data set on MDA-MB-231 (10% FBS, 6-day treatment, read-out: IC50 μM, MDA-MB-231). The IC50 in the data set on MDA-MB-231 (10% FBS, 16-hours treatment, read-out: IC50 μM, MDA-MB-231) was greater than 100 µM; with NIH 3T3 (6-day treatment), 2.4 µM; with NIH 3T3 (16-hours treatment) it was greater than 150 µM.

For the compound `CCN(CC)Cc1cc(=O)c(OCCCCCSc2ccnc3cc(C(F)(F)F)ccc23)co1` [EHT 7370, 2-((Diethylamino)methyl)-5-(5-(7-(trifluoromethyl)quinolin-4-ylthio)pentyloxy)-4H-pyran-4-one], the melting point amounted to 71.2 °C. In the data set with HMEC1 (Homo sapiens, HMEC-1, 144 h), the IC50 turned out to be 12.1 µM. For the same compound, half-maximal inhibition in the data set with HCT116 (setting [1]) (IC50) required 4.4 µM.
